This passage reports IC50 and Emax results from EP0405506A1, “Tetrapeptide type-B CCK receptor ligands” (ABBOTT LABORATORIES, priority 1989, dated 1991).

Assay [1] has as its target T1, cortical CCK receptor (Cavia porcellus, UniProt H0VZC5).
T1 construct: Cortical and pancreatic membranes were prepared as described; from tissue; host or cells: guinea pig cerebral cortex membranes
T1 sequence (H0VZC5 1-426): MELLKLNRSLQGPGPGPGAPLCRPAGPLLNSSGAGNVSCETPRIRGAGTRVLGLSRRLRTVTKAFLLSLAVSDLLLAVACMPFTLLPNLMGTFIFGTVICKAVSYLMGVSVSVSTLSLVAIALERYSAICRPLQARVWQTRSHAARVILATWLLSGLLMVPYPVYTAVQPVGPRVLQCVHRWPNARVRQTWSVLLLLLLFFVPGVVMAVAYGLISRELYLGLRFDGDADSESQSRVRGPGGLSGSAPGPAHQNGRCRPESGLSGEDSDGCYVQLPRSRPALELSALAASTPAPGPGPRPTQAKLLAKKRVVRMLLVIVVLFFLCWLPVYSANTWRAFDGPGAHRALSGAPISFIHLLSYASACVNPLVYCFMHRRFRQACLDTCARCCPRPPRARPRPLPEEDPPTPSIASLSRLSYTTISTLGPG
The assay is described as follows: Radioligand binding ([125I]Bolton-Hunter CCK8) in guinea pig cerebral cortical membranes. The conditions noted are these: displacement of [125I]BH-CCK8, cortical membranes, 30°C for 150 min, Hill analysis; read-out: IC₅₀ (nM) cortex. From the text:
Protocol for Radioligand Binding Experiments in Guinea Pig Cerebral Cortical and Pancreatic Membrance Preparations
CCK8 (Asp-Tyr(SO₃H)-Met-Gly-Trp-Met-Asp-Phe-NH₂), bestatin and phosphormaidon were purchased from Peptide International (Louisville, KY). EGTA, HEPES, BSA were purchased from Sigma Chemical Co. (St. Louis, MO). [¹²⁵I]-Bolton-Hunter CCK8 (BH-CCK8) (specific activity, 2200 Ci, mmol) was obtained from New England Nuclear (Boston, MA). Male ginea pigs, 250 to 325 g, were obtained from Scientific Small Animal Laboratory and Farm (Arlington Heights, IL). Collangenase, code CLSPA was purchased from Worthington (Frehold, NJ).
Cortical and pancreatic membranes were prepared as described (Lin and Miller; J. Pharmacol. Exp. Ther. 232, 775-780, 1985). In brief, pancreas and cortex were removed and rinsed with ice-cold saline. Visible fat and connective tissues were removed from the pancreas. Tissues were weighed and homogenized in approximately 25 mL of ice-cold 50 mM Tris-HCl buffer, pH 7.4 at 4°C with a Brinkman Polytron for 30 sec, setting 7. The homogenates were centrifuged for 10 min at 1075 x g and the pellet was discarded. The supernantants were saved and centrifuged at 38,730 x g for 20 min. The resultant pellets were rehomogenized in 25 mL of 50 mM Tris-HCl buffer with a Teflon-glass homogenizer, 5 up and down strokes. The homogenates were centrifuged again at 38,730 x g for 20 min. The pellets were then resuspended in 20 mM HEPES, containing 1 mM EGTA, 118 mM NaCl, 4.7 mM KCl, 5mM MgCl₂, 100 uM bestatin, 3 uM phosphoramidon, pH 7.4 at 22°C with a Teflon-glass homogenizer, 15 up and down strokes. The resuspension volume used for the cortex was 15 mL per g of original wet weight and 60 mL per g for pancreas.
[¹²⁵I]Bolton-Hunter CCK8 and test compounds were diluted with HEPES-EGTA-salt buffer (see above) containing 0.5% bovine serum albumin (BSA). To 1 mL Skatron polystyrene tubes were added 25 uL of test compounds, 25 uL of [¹²⁵I]BH-CCK8 and 200 uL of membrane suspension. The final BSA concentration was 0.1%. The cortical tissues were incubated at 30°C for 150 min. and pancreatic tissues were incubated at 37°C for 150 min. Incubations were terminated by filtration using Skatron Cell Harvester and SS32 microfiber filter mats. The specific binding of [¹²⁵I]BH-CCK8, defined as the difference betwen binding in the absence and presence of 1 uM CCK8, was 85-90% of total binding in cortex and 90-95% in pancreas. IC₅₀s were determined from the Hill analysis.
Background: Loss of bound radioactivity is the signal in a displacement assay; it reports binding, not function.

The target in assay [2] is T2, CCK receptors (Cavia porcellus, UniProt Q63931).
T2 construct: Cortical and pancreatic membranes were prepared as described; from tissue; host or cells: guinea pig pancreas membranes
T2 sequence (Q63931 1-430): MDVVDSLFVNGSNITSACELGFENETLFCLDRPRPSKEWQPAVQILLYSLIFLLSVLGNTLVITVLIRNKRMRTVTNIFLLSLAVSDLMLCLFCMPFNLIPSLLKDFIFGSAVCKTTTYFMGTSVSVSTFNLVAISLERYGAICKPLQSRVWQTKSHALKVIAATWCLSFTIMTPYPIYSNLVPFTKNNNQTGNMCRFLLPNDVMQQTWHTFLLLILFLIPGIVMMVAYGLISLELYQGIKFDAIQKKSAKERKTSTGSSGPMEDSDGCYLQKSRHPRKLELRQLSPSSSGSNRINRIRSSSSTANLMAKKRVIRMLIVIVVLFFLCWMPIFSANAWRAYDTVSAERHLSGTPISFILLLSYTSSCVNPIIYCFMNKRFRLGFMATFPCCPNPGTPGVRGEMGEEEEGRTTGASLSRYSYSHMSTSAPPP
The assay can be described thus: Radioligand binding ([125I]Bolton-Hunter CCK8) in guinea pig pancreatic membranes.
Description: EGTA, HEPES, BSA were purchased from Sigma Chemical Co. (St. Louis, MO). […] Male ginea pigs, 250 to 325 g, were obtained from Scientific Small Animal Laboratory and Farm (Arlington Heights, IL). Collangenase, code CLSPA was purchased from Worthington (Frehold, NJ).
The final BSA concentration was 0.1%. The cortical tissues were incubated at 30°C for 150 min. and pancreatic tissues were incubated at 37°C for 150 min. Incubations were terminated by filtration using Skatron Cell Harvester and SS32 microfiber filter mats. […] IC₅₀s were determined from the Hill analysis.

The target in assay [3] is T3, CCK-B receptors on small cell lung cancer cell lines (Homo sapiens, UniProt P32239).
T3 construct: endogenous in cells; host or cells: NCI-H345 and H209 small cell lung cancer cells
T3 sequence (P32239 1-447): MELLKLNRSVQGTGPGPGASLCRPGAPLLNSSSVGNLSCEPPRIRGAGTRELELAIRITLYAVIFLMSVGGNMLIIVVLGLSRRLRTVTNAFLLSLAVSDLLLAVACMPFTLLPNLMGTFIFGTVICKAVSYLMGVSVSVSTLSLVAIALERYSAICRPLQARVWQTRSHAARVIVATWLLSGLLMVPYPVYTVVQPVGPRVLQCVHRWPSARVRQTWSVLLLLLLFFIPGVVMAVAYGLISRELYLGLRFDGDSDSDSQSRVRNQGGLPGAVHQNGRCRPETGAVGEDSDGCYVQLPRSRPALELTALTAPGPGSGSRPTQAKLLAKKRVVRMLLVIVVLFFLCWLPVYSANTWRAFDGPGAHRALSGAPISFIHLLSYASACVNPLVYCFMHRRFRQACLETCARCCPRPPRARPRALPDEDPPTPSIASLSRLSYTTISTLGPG
The assay can be described thus: Measurement of [Ca++]i changes in NCI-H345 and H209 cell lines (indo-1 fluorescence). The format is cell-based. The conditions noted are these: read-out: Intrinsic Activity Relative to CCK-8.
Description: Protocol for Measuring [Ca++]i Changes in NCI-H345 and H209 Cell Lines
Culture conditions were as described (D.G. Yoder, T.W. Moody, Peptides, 8, 103 (1987), except that the medium was modified to RPMI 1640 with 2.5% fetal bovine serum (heat inactivated), 5µg/l sodium selenite, 5 mg/l human transferrin, 5 mg/l insulin, penicillin (100 U/l) and streptomycin (100 µg/l). To measure intracellular Ca²⁺, cells were loaded with 1 µM of indo-1,AM, for 60 min at 37°C. The cells were centrifuged at 750 x g for 5 min and resuspended in 40 mL Buffer F (Dulbecco's phosphate buffered saline containing 0.1% glucose, pH 7.4). The cells were counted then twice washed by centrifugation. The final pellet was resuspended (approximately 1 x 10⁶ cells/mL) in Buffer F. The cells were thermally equilibrated in a thermostated cuvette (37°C) for 2 min prior to base-line fluorescence measurement. Fluorescence measurements were made with an SLM 8000C spectrofluorimeter equipped with magnetic microstirrer and polarizing filters. Measurements with indo-1-loaded cells were obtained at excitation wavelength of 350 nm and emission wavelength of 480 and 405 nM and the time interval for the measurements was 0.5 sec.

Setting [4] is: displacement of [125I]BH-CCK8, pancreatic membranes, 37°C for 150 min, Hill analysis, read-out: IC₅₀ (uM) pancreas.

Where two headings read alike, the source gives them in different places. Square brackets hold non-standard residues; d marks the D form. Peptide text beside a SMILES is read from it. * marks the point of attachment. Ala(1H-tetrazol-5-yl) = N[C@@H](Cc1nnn[nH]1)C(=O)O; 1Nal = N[C@@H](Cc1cccc2ccccc12)C(=O)O; 2Nal = N[C@@H](Cc1ccc2ccccc2c1)C(=O)O; Tic = O=C(O)[C@@H]1Cc2ccccc2CN1; Cha = N[C@@H](CC1CCCCC1)C(=O)O; NMeL = CN[C@@H](CC(C)C)C(=O)O; Cbz = O=C(OCc1ccccc1)*; Boc = CC(C)(C)OC(=O)* Some results are limits rather than exact numbers.

Regarding `CC(C)C[C@H](NC(=O)[C@@H]1Cc2c[nH]c3cccc(c23)CC(=O)N1)C(=O)N[C@@H](CC(=O)O)C(=O)N[C@@H](Cc1ccccc1)C(N)=O` [Example 1, CTP-Leu-Asp-Phe-NH₂], the IC50 amounted to 2.5 nM in assay [1] and 2.7 µM in assay [2] (setting [4]).
As to `CC(C)C[C@H](NC(=O)[C@H](Cc1c[nH]c2ccccc12)NC(=O)OC(C)(C)C)C(=O)N[C@@H](CC(=O)O)C(=O)N1Cc2ccccc2C[C@H]1C(N)=O` [Example 2, Boc-Trp-Leu-Asp-Tiq-NH₂] (Boc-WLD[Tic]-NH2), the IC50 amounted to 37 nM in assay [1] and 19 µM in assay [2].
In the case of `CC(C)C[C@H](NC(=O)[C@@H]1Cc2c[nH]c3cccc(c23)CC(=O)N1)C(=O)N[C@@H](CC(=O)O)C(=O)N(C)[C@@H](Cc1ccccc1)C(N)=O` [Example 6, Ctp-Leu-Asp-(NMe)Phe-NH₂], in assay [3], the Emax is 96%.
Consider `CC(C)C[C@H](NC(=O)[C@H](Cc1c[nH]c2ccccc12)NC(=O)OC(C)(C)C)C(=O)N[C@@H](Cc1nnn[nH]1)C(=O)N[C@@H](Cc1ccccc1)C(N)=O` [Example 9, Boc-Trp-Leu-[β-1(2)H-tetrazol-5-yl]-L-alanyl-Phe-NH₂] (Boc-WL[Ala(1H-tetrazol-5-yl)]F-NH2), for which the values for the IC50 in assay [1] and in assay [2] (setting [4]) were 13 nM and above 1 µM, respectively.
For `CC(C)C[C@@H](C(=O)N[C@@H](CC(=O)O)C(=O)N[C@@H](Cc1ccccc1)C(N)=O)N(C)C(=O)[C@H](Cc1c[nH]c2ccccc12)NC(=O)OCc1ccccc1` [Example 15, Cbz-Trp-(NMe)Leu-Asp-Phe-NH₂] (Cbz-W[NMeL]DF-NH2) the same measures were 5 nM and 1 µM.
Consider `CC(C)C[C@H](NC(=O)[C@H](Cc1c[nH]c2ccccc12)NC(=O)OC(C)(C)C)C(=O)N[C@@H](CC(=O)O)C(=O)NC(=Cc1ccccc1)C(N)=O` [Example 19, Boc-Trp-Leu-Asp-(dehydro)Phe-NH₂], for which the IC50 in assay [1] was 54 nM; in assay [2] (setting [4]), 1.8 µM.
Taken in the same sequence, the figures for `CC(C)C[C@H](NC(=O)[C@@H]1Cc2c[nH]c3cccc(c23)CC(=O)N1)C(=O)N[C@@H](CC(=O)O)C(=O)NC(=Cc1ccccc1)C(N)=O` [Example 23, Ctp-Leu-Asp-(dehydro)Phe-NH₂] were 16 nM and above 10 µM.
Regarding `CC(C)C[C@H](NC(=O)[C@H](Cc1c[nH]c2ccccc12)NC(=O)OC(C)(C)C)C(=O)N[C@@H](CC(=O)O)C(=O)N[C@@H](Cc1c[nH]c2ccccc12)C(N)=O` [Example 42, Boc-Trp-Leu-Asp-Trp-NH₂] (Boc-WLDW-NH2), the IC50 in assay [1] came to 13 nM; in assay [2] (setting [4]) it was 3.8 µM.
Taken in the same sequence, the figures for `CC(C)C[C@H](NC(=O)[C@H](Cc1c[nH]c2ccccc12)NC(=O)OC(C)(C)C)C(=O)N[C@@H](CC(=O)O)C(=O)N[C@@H](CC1CCCCC1)C(N)=O` [Example 43, Boc-Trp-Leu-Asp-Cha-NH₂] (Boc-WLD[Cha]-NH2) were 170 nM and 11 µM.
Take `CC(C)C[C@H](NC(=O)[C@H](Cc1c[nH]c2ccccc12)NC(=O)OC(C)(C)C)C(=O)N[C@@H](CC(=O)O)C(=O)N[C@@H](Cc1ccc2ccccc2c1)C(N)=O` [Example 44, Boc-Trp-Leu-Asp-β-Nal-NH₂] (Boc-WLD[2Nal]-NH2): in assay [3], the Emax was determined as 104%.
`CC(C)C[C@H](NC(=O)[C@H](Cc1c[nH]c2ccccc12)NC(=O)OC(C)(C)C)C(=O)N[C@@H](CC(=O)O)C(=O)N[C@@H](Cc1cccc2ccccc12)C(N)=O` [Example 45, Boc-Trp-Leu-Asp-α-Nal-NH₂] (Boc-WLD[1Nal]-NH2): the IC50 was 12 nM in assay [1] and 1.7 µM in assay [2] (setting [4]).
For `CCC[C@H]1CCN(C(=O)[C@H](Cc2c[nH]c3ccccc23)NC(=O)OC(C)(C)C)[C@@H]1C(=O)N[C@@H](CC(=O)O)C(=O)N[C@@H](Cc1ccccc1)C(N)=O` [Example 47, Boc-Trp-Tpp-Asp-Phe-NH₂] the same measures were 1.2 nM and 89 µM.
Taken in the same sequence, the figures for `CC(C)C[C@H](NC(=O)[C@H](Cc1ccc2ccccc2c1)NC(=O)OC(C)(C)C)C(=O)N[C@@H](CC(=O)O)C(=O)N[C@@H](Cc1ccccc1)C(N)=O` [Example 50, Boc-β-Nal-Leu-Asp-Phe-NH₂] (Boc-[2Nal]LDF-NH2) were 27 nM and 5 µM.
For `CCC[C@H]1CCN(C(=O)[C@@H]2Cc3c[nH]c4cccc(c34)CC(=O)N2)[C@@H]1C(=O)N[C@@H](CC(=O)O)C(=O)N(C)[C@@H](Cc1ccccc1)C(N)=O` [Example 52, Ctp-Tpp-Asp-(NMe)Phe-NH₂], the results for the IC50 in assay [1] and in assay [2] (setting [4]) were 2.6 nM and 3.5 µM, respectively. The Emax in assay [3] stood at 100%.
Turning to `CCC[C@H]1CCN(C(=O)[C@H](Cc2c[nH]c3ccccc23)NC(=O)OC(C)(C)C)[C@@H]1C(=O)N[C@@H](CC(=O)O)C(=O)N[C@@H](Cc1c[nH]c2ccccc12)C(N)=O` [Example 54, Boc-Trp-Tpp-Asp-Trp-NH₂], the results for the IC50 in assay [1] and in assay [2] (setting [4]) were 5 nM and 3.7 µM, respectively.
With `CCC[C@H]1CCN(C(=O)[C@@H]2Cc3c[nH]c4cccc(c34)CC(=O)N2)[C@@H]1C(=O)N[C@@H](CC(=O)O)C(=O)N[C@@H](Cc1cccc2ccccc12)C(N)=O` [Example 57, Ctp-Tpp-Asp-α-Nal-NH₂], the IC50 in assay [1] worked out at 0.4 nM; in assay [2] (setting [4]) it was 1.4 µM. Moreover, the Emax in assay [3] amounted to 109%.
Regarding `CCC[C@H]1CCN(C(=O)[C@@H]2Cc3c[nH]c4cccc(c34)CC(=O)N2)[C@@H]1C(=O)N[C@@H](CC(=O)O)C(=O)N[C@@H](Cc1ccc2ccccc2c1)C(N)=O` [Example 58, Ctp-Tpp-Asp-β-Nal-NH₂], the figures for the IC50 in assay [1] and in assay [2] (setting [4]) were 1.9 nM and 11 µM, respectively. The Emax in assay [3] was determined as 100%.
For the compound `CCC[C@H]1CCN(C(=O)[C@@H]2Cc3c[nH]c4cccc(c34)CC(=O)N2)[C@@H]1C(=O)N[C@@H](CC(=O)O)C(=O)N[C@@H](CC1CCCCC1)C(N)=O` [Example 59, Ctp-Tpp-Asp-Cha-NH₂], the IC50 in assay [1] was found to be 0.9 nM; in assay [2] (setting [4]) it was 4.3 µM.
